Assay results published in patent US20160158317A1, “Antimicrobial Peptide Variants and Polynucleotides Encoding Same” (Adenium Biotech A/S, priority 2010, published 2016).
Where a SMILES comes first, the peptide text is derived from it. Bridges are numbered along the chain shown (N, C = ends).

assay: Determination of the protein binding (90% serum, 30 kDa filter, HPLC); format: in vitro ADME; conditions: serum
Experimental: Protein binding assays were performed as follows. The purified peptides were mixed with 90% serum and centrifuged through a 30 kDa filter. The ultra-filtrate and the non filtrated serum samples were quantified by HPLC measurements and the protein binding was subsequently calculated.

**Q.** For `CC(C)[C@@H]1NC(=O)CNC(=O)[C@H](CC(N)=O)NC(=O)[C@H](CCCNC(=N)N)NC(=O)[C@H](CCCCN)NC(=O)[C@H](C(C)C)NC(=O)[C@@H]2CSSC[C@H](NC(=O)[C@H](C(C)C)NC(=O)[C@H](CCCNC(=N)N)NC1=O)C(=O)N[C@@H](Cc1c[nH]cn1)C(=O)N[C@@H](CCCNC(=N)N)C(=O)N[C@@H](CCCNC(=N)N)C(=O)N[C@H](C(=O)N[C@@H](CC(N)=O)C(=O)O)CSSC[C@H](NC(=O)[C@H](Cc1ccccc1)NC(=O)CN)C(=O)N[C@@H](Cc1ccccc1)C(=O)N[C@@H](Cc1ccc(O)cc1)C(=O)N[C@@H](C(C)C)C(=O)N2` [compound 137] (H-GFCFYVCVKRNGVRVCHRRCN-OH; disulfide 3-20, 7-16 (inferred); N-terminus and C-terminus assumed), which fraction unbound is on record?
**A.** Its fraction unbound is 0.14.

**Q.** Which fraction unbound does the source give for `CC(C)[C@@H]1NC(=O)CNC(=O)[C@H](CC(N)=O)NC(=O)[C@H](CCCNC(=N)N)NC(=O)[C@H](Cc2ccc(O)cc2)NC(=O)[C@H](C(C)C)NC(=O)[C@@H]2CSSC[C@H](NC(=O)[C@H](C(C)C)NC(=O)[C@H](CCCNC(=N)N)NC1=O)C(=O)N[C@@H](Cc1ccc(O)cc1)C(=O)N[C@@H](CCCNC(=N)N)C(=O)N[C@@H](CCCNC(=N)N)C(=O)N[C@H](C(=O)N[C@@H](CO)C(=O)O)CSSC[C@H](NC(=O)[C@H](Cc1ccccc1)NC(=O)CN)C(=O)NCC(=O)N[C@@H](Cc1c[nH]cn1)C(=O)N[C@@H](C(C)C)C(=O)N2` [compound 144] (H-GFCGHVCVYRNGVRVCYRRCS-OH; disulfide 3-20, 7-16 (inferred); N-terminus and C-terminus assumed) here?
**A.** The fraction unbound was 0.32.

**Q.** For `CC(C)[C@@H]1NC(=O)CNC(=O)[C@H](CC(N)=O)NC(=O)[C@H](CCCNC(=N)N)NC(=O)[C@H](Cc2ccc(O)cc2)NC(=O)[C@H](C(C)C)NC(=O)[C@@H]2CSSC[C@H](NC(=O)[C@H](CCCNC(=N)N)NC(=O)[C@H](CCCNC(=N)N)NC1=O)C(=O)N[C@@H](Cc1ccc(O)cc1)C(=O)N[C@@H](CCCNC(=N)N)C(=O)N[C@@H](CCCNC(=N)N)C(=O)N[C@H](C(=O)N[C@@H](CC(N)=O)C(=O)O)CSSC[C@H](NC(=O)[C@H](Cc1ccccc1)NC(=O)CN)C(=O)NCC(=O)N[C@@H](Cc1c[nH]cn1)C(=O)N[C@@H](C(C)C)C(=O)N2` [compound 155] (H-GFCGHVCVYRNGVRRCYRRCN-OH; disulfide 3-20, 7-16 (inferred); N-terminus and C-terminus assumed), which fraction unbound is on record?
**A.** Its fraction unbound is 0.17.

**Q.** With `CC(C)[C@@H]1NC(=O)CNC(=O)[C@H](CC(N)=O)NC(=O)[C@H](CCCNC(=N)N)NC(=O)[C@H](Cc2ccc(O)cc2)NC(=O)[C@H](C(C)C)NC(=O)[C@@H]2CSSC[C@H](NC(=O)[C@H](CCCNC(=N)N)NC(=O)[C@H](CCCNC(=N)N)NC1=O)C(=O)N[C@@H](Cc1ccc(O)cc1)C(=O)N[C@@H](CCCNC(=N)N)C(=O)N[C@@H](CCCNC(=N)N)C(=O)N[C@H](C(=O)N[C@@H](CC(N)=O)C(=O)O)CSSC[C@H](NC(=O)[C@H](Cc1ccccc1)NC(=O)CN)C(=O)NCC(=O)N[C@@H](CCCNC(=N)N)C(=O)N[C@@H](C(C)C)C(=O)N2` [compound 170] (H-GFCGRVCVYRNGVRRCYRRCN-OH; disulfide 3-20, 7-16 (inferred); N-terminus and C-terminus assumed) as the compound, how does the fraction unbound read?
**A.** The fraction unbound was 0.13.

**Q.** With `CC(C)[C@@H]1NC(=O)CNC(=O)[C@H](CC(N)=O)NC(=O)[C@H](CCCNC(=N)N)NC(=O)[C@H](Cc2ccc(O)cc2)NC(=O)[C@H](C(C)C)NC(=O)[C@@H]2CSSC[C@H](NC(=O)[C@H]([C@@H](C)O)NC(=O)[C@H](CCCNC(=N)N)NC1=O)C(=O)N[C@@H](Cc1ccc(O)cc1)C(=O)N[C@@H](CCCNC(=N)N)C(=O)N[C@@H](CCCNC(=N)N)C(=O)N[C@H](C(=O)N[C@@H](CC(N)=O)C(=O)O)CSSC[C@H](NC(=O)[C@H](Cc1ccccc1)NC(=O)CN)C(=O)NCC(=O)N[C@@H](CCCNC(=N)N)C(=O)N[C@@H](C(C)C)C(=O)N2` [compound 171] (H-GFCGRVCVYRNGVRTCYRRCN-OH; disulfide 3-20, 7-16) as the compound, how does the fraction unbound read?
**A.** Its fraction unbound is 0.16.

**Q.** Which fraction unbound does the source give for `CC(C)[C@@H]1NC(=O)CNC(=O)[C@H](CC(N)=O)NC(=O)[C@H](CCCNC(=N)N)NC(=O)[C@H](CCCNC(=N)N)NC(=O)[C@H](C(C)C)NC(=O)[C@@H]2CSSC[C@H](NC(=O)[C@H](C(C)C)NC(=O)[C@H](CCCNC(=N)N)NC1=O)C(=O)N[C@@H](Cc1ccc(O)cc1)C(=O)N[C@@H](CCCNC(=N)N)C(=O)N[C@@H](CCCNC(=N)N)C(=O)N[C@H](C(=O)N[C@@H](CC(N)=O)C(=O)O)CSSC[C@H](NC(=O)[C@H](Cc1ccccc1)NC(=O)CN)C(=O)NCC(=O)N[C@@H](CCCNC(=N)N)C(=O)N[C@@H](C(C)C)C(=O)N2` [compound 172] (H-GFCGRVCVRRNGVRVCYRRCN-OH; disulfide 3-20, 7-16 (inferred); N-terminus and C-terminus assumed) here?
**A.** The fraction unbound was 0.12.

**Q.** For `CC(C)[C@@H]1NC(=O)CNC(=O)[C@H](CC(N)=O)NC(=O)[C@H](CCCNC(=N)N)NC(=O)[C@H](CCCCN)NC(=O)[C@H](C(C)C)NC(=O)[C@@H]2CSSC[C@H](NC(=O)[C@H](CCCCN)NC(=O)[C@H](CCCNC(=N)N)NC1=O)C(=O)N[C@@H](Cc1ccc(O)cc1)C(=O)N[C@@H](CCCNC(=N)N)C(=O)N[C@@H](CCCNC(=N)N)C(=O)N[C@H](C(=O)N[C@@H](CC(N)=O)C(=O)O)CSSC[C@H](NC(=O)[C@H](Cc1ccccc1)NC(=O)CN)C(=O)N[C@@H]([C@@H](C)O)C(=O)N[C@@H](Cc1ccc(O)cc1)C(=O)N[C@@H](C(C)C)C(=O)N2` [compound 195] (H-GFCTYVCVKRNGVRKCYRRCN-OH; disulfide 3-20, 7-16 (inferred); N-terminus and C-terminus assumed), which fraction unbound is on record?
**A.** Its fraction unbound is 0.05.

**Q.** With `CC(C)[C@@H]1NC(=O)CNC(=O)[C@H](CC(N)=O)NC(=O)[C@H](CCCNC(=N)N)NC(=O)[C@H](Cc2ccc(O)cc2)NC(=O)[C@H](C(C)C)NC(=O)[C@@H]2CSSC[C@H](NC(=O)[C@H](CO)NC(=O)[C@H](CCCNC(=N)N)NC1=O)C(=O)N[C@@H](Cc1ccc(O)cc1)C(=O)N[C@@H](CCCNC(=N)N)C(=O)N[C@@H](CCCNC(=N)N)C(=O)N[C@H](C(=O)N[C@@H](CC(N)=O)C(=O)O)CSSC[C@H](NC(=O)[C@H](Cc1ccccc1)NC(=O)CN)C(=O)N[C@@H](Cc1ccc(O)cc1)C(=O)N[C@@H](CCCCN)C(=O)N[C@@H](C(C)C)C(=O)N2` [compound 206] (H-GFCYKVCVYRNGVRSCYRRCN-OH; disulfide 3-20, 7-16 (inferred); N-terminus and C-terminus assumed) as the compound, how does the fraction unbound read?
**A.** Its fraction unbound is 0.14.

**Q.** Which fraction unbound does the source give for `CC(C)[C@@H]1NC(=O)CNC(=O)[C@H](CC(N)=O)NC(=O)[C@H](CCCNC(=N)N)NC(=O)[C@H](Cc2ccc(O)cc2)NC(=O)[C@H](C(C)C)NC(=O)[C@@H]2CSSC[C@H](NC(=O)[C@H](CCCNC(=N)N)NC(=O)[C@H](CCCNC(=N)N)NC1=O)C(=O)N[C@@H](Cc1ccc(O)cc1)C(=O)N[C@@H](CCCNC(=N)N)C(=O)N[C@@H](CCCNC(=N)N)C(=O)N[C@H](C(=O)N[C@@H](CC(N)=O)C(=O)O)CSSC[C@H](NC(=O)[C@H](Cc1ccccc1)NC(=O)CN)C(=O)N[C@@H](Cc1ccc(O)cc1)C(=O)N[C@@H](CC(N)=O)C(=O)N[C@@H](C(C)C)C(=O)N2` [compound 207] (H-GFCYNVCVYRNGVRRCYRRCN-OH; disulfide 3-20, 7-16 (inferred); N-terminus and C-terminus assumed) here?
**A.** The fraction unbound was 0.09.

**Q.** For `CC(C)[C@@H]1NC(=O)CNC(=O)[C@H](CC(N)=O)NC(=O)[C@H](CCCNC(=N)N)NC(=O)[C@H](Cc2ccc(O)cc2)NC(=O)[C@H](C(C)C)NC(=O)[C@@H]2CSSC[C@H](NC(=O)[C@H]([C@@H](C)O)NC(=O)[C@H](CCCNC(=N)N)NC1=O)C(=O)N[C@@H](Cc1ccc(O)cc1)C(=O)N[C@@H](CCCNC(=N)N)C(=O)N[C@@H](CCCNC(=N)N)C(=O)N[C@H](C(=O)N[C@@H](CC(N)=O)C(=O)O)CSSC[C@H](NC(=O)[C@H](Cc1ccccc1)NC(=O)CN)C(=O)N[C@@H](Cc1ccc(O)cc1)C(=O)N[C@@H](CCCNC(=N)N)C(=O)N[C@@H](C(C)C)C(=O)N2` [compound 209] (H-GFCYRVCVYRNGVRTCYRRCN-OH; disulfide 3-20, 7-16 (inferred); N-terminus and C-terminus assumed), which fraction unbound is on record?
**A.** The fraction unbound was 0.11.

**Q.** For `CC(C)[C@@H]1NC(=O)CNC(=O)[C@H](CC(N)=O)NC(=O)[C@H](CCCNC(=N)N)NC(=O)[C@H](Cc2ccc(O)cc2)NC(=O)[C@H](C(C)C)NC(=O)[C@@H]2CSSC[C@H](NC(=O)[C@H](C(C)C)NC(=O)[C@H](CCCNC(=N)N)NC1=O)C(=O)N[C@@H](Cc1c[nH]cn1)C(=O)N[C@@H](CCCNC(=N)N)C(=O)N[C@@H](CCCNC(=N)N)C(=O)N[C@H](C(=O)N[C@@H](CC(N)=O)C(=O)O)CSSC[C@H](NC(=O)[C@H](Cc1ccccc1)NC(=O)CN)C(=O)N[C@@H](Cc1ccc(O)cc1)C(=O)N[C@@H](CCCNC(=N)N)C(=O)N[C@@H](C(C)C)C(=O)N2` [compound 210] (H-GFCYRVCVYRNGVRVCHRRCN-OH; disulfide 3-20, 7-16 (inferred); N-terminus and C-terminus assumed), which fraction unbound is on record?
**A.** Its fraction unbound is 0.11.

**Q.** For `CC(C)[C@@H]1NC(=O)CNC(=O)[C@H](CC(N)=O)NC(=O)[C@H](CCCNC(=N)N)NC(=O)[C@H](Cc2ccc(O)cc2)NC(=O)[C@H](C(C)C)NC(=O)[C@@H]2CSSC[C@H](NC(=O)[C@H](C(C)C)NC(=O)[C@H](CCCNC(=N)N)NC1=O)C(=O)N[C@@H](CO)C(=O)N[C@@H](CCCNC(=N)N)C(=O)N[C@@H](CCCNC(=N)N)C(=O)N[C@H](C(=O)N[C@@H](CC(N)=O)C(=O)O)CSSC[C@H](NC(=O)[C@H](Cc1ccccc1)NC(=O)CN)C(=O)N[C@@H](Cc1ccc(O)cc1)C(=O)N[C@@H](CCCNC(=N)N)C(=O)N[C@@H](C(C)C)C(=O)N2` [compound 211] (H-GFCYRVCVYRNGVRVCSRRCN-OH; disulfide 3-20, 7-16 (inferred); N-terminus and C-terminus assumed), which fraction unbound is on record?
**A.** Its fraction unbound is 0.04.
